From patent US8188078B2 (Sanofi-Aventis, priority 2007, dated 2012) come the findings set out here.

One series concerns MKN45 cells. The experiment in a line: Test D: cellular proliferation by 14C-thymidine pulse, MKN45 cells. In kind it is cell-based. As to conditions: Homo sapiens, MKN-45, cellular proliferation by 14C-thymidine pulse; cell line not stated (HCT116 or MKN45). The method, then: D) Measurement of Cellular Proliferation by 14C-Thymidine Pulse
The cells are sown in Cytostar 96-well plates under 180 μl for 4 hours at 37° C. and 5% CO2: The HCT116 cells at a rate of 2500 cells per well in DMEM medium+10% foetal calf serum+1% of L-glutamine and the MKN45 cells at a rate of 7500 cells per well in RPMI medium+10% foetal calf serum+1% of L-glutamine. After said incubation for 4 hours, the products are added under 10 μl in 20-times concentrated solution according to the method of dilution stated for ELISA. The products are tested at 10 concentrations in duplicate from 10000 nM to 0.3 nM in steps of 3.
After treatment for 72 h, add 10 μl of 14C-thymidine at 10 μCi/ml to obtain 0.1 μCi per well. The incorporation of 14C-thymidine is measured on a Micro-Beta (Perkin-Elmer) after 24 hours of pulse and 96 h of treatment.
All the stages of the test are automated on the BIOMEK 2000 or TECAN stations.

The target of the next series is T1, c-MET (Homo sapiens, UniProt P08581).
T1 construct: The recombinant DNA His-Tev-MET (956-1390) in pFastBac(Invitrogen); His (N, cleaved yes); Tev (TEV protease site) (N, cleaved yes); made in house; host or cells: SF21 insect cells (baculovirus, pFastBac)
As to the kind of experiment: Test A: HTRF Met test in 96-well format. In kind it is biochemical. The method, then: I) Expression and Purification of MET, Cytoplasmic Domain
The recombinant DNA His-Tev-MET (956-1390) in pFastBac(Invitrogen) is transfected in insect cells and after several stages of viral amplification, the final stock of baculovirus is tested for expression of the protein of interest.
After infection for 72 h at 27° C. with the recombinant virus, the SF21 cell cultures are harvested by centrifugation and the cellular deposits are stored at −80° C.
The cellular deposits are resuspended in the lysis buffer (buffer A [50 mM HEPES, pH 7.5, 250 mM NaCl, Glycerol 10%, TECP 1 mM]; +cocktail of protease inhibitors Roche Diagnostics without EDTA, ref 1873580), stirred at 4° C. until homogeneous, then lysed mechanically using apparatus of the “Dounce” type.
After centrifugation, the lysis supernatant is incubated for 2 h at 4° C. with Nickel Chelate resin (His-Trap 6 Fast Flow™, GE HealthCare). After washing with 20 volumes of Tp A, the suspension is packed in a column, and the proteins are eluted with a gradient of buffer B ([…]+290 mM imidazole).
The fractions containing the protein of interest with a view to electrophoretic analysis (SDS PAGE) are collected, concentrated by ultrafiltration (cut-off 10 kDa) and injected in an exclusion chromatography column (Superdex™ 200, GE HealthCare) equilibrated with buffer A.
After enzymatic cleavage of the tag Histidine, the protein is reinjected in a new IMAC Nickel Chelate chromatography column (His-Trap 6 Fast Flow™, GE HealthCare) equilibrated with Buffer A. The fractions eluted with a gradient of buffer B and containing the protein of interest after electrophoresis (SDS PAGE), are finally collected and stored at −80° C.
For the production of autophosphorylated protein, the preceding fractions are incubated for 1 h at room temperature after adding ATP 2 mM, MgCl2 2 mM, and Na3VO4 4 mM. After stopping the reaction with 5 mM of EDTA, the reaction mixture is injected in a HiPrep desalting column (GE HealthCare) equilibrated beforehand with buffer A+Na3VO4 4 mM; the fractions containing the protein of interest (SDS PAGE analysis) are collected and stored at −80° C. The degree of phosphorylation is verified by mass spectrometry (LC-MS), and by peptide mapping.
A) HTRF Met test in 96-well format
In a final volume of 50 μl of enzymatic reaction mixture, final c-MET 5 nM is incubated in the presence of the molecule to be tested (for a final concentration range from 0.17 nM to 10 μM, final DMSO 3%) in buffer MOPS 10 mM pH 7.4, DTT 1 mM, Tween 20 0.01%. The reaction is initiated by the substrate solution to obtain the final concentrations of poly-(GAT) 1 μg/ml, ATP 10 μM and MgCl2 5 mM. After incubation for 10 min at room temperature, the reaction is stopped with a mix of 30 μl to obtain a final solution of Hepes 50 mM pH 7.5, potassium fluoride 500 mM, BSA 0.1% and EDTA 133 mM in the presence of 80 ng Streptavidin 61SAXLB Cis-Bio Int. and 18 ng anti-phosphotyrosine Mab PT66-Europium Cryptate per well. After 2 hours of incubation at room temperature, reading is carried out at 2 wavelengths 620 nm and 665 nm in a reader for the TRACE/HTRF technique and the percentage inhibition is calculated according to the 665/620 ratios.

Another series addresses T2, MET (Homo sapiens, UniProt P08581).
T2 construct: endogenous in cells; host or cells: MKN45 cells
As to the kind of experiment: Test C: inhibition of the autophosphorylation of MET, ELISA technique (pppY1230, 1234, 1235), MKN45 cells. In kind it is cell-based. As for the experimental part: C) Inhibition of the Autophosphorylation of MET; ELISA Technique (pppY1230, 1234, 1235)
a) Cellular lysates: Sow the MKN45 cells in a 96-well plate (Cell coat BD polylysine) at 20 000 cells/well under 200 μl of medium RPMI+10% FCS+1% L-glutamine. Leave to adhere to the incubator for 24 h.
The cells are treated on the day after sowing with the products at 6 concentrations in duplicate for 1 h. At least 3 control wells are treated with the same amount of final DMSO.
Dilution of the products: Stock at 10 mM in pure DMSO—range from 10 mM to 30 μM with steps of 3 of pure DMSO—Intermediate dilutions to 1/50 in culture medium then taking of 10 μl added directly to the cells (200 μl): final range from 10000 to 30 nM.
At the end of incubation, carefully remove the supernatant and rinse with 200 μl of PBS. Then put 100 μl of lysis buffer directly in the wells on ice and incubate at 4° C. for 30 minutes. Lysis buffer: 10 mM Tris, HCl pH7.4, 100 mM NaCl, 1 mM EDTA, 1 mM EGTA, 1% Triton X-100, 10% glycerol, 0.1% SDS, 0.5% deoxycholate, 20 mM NaF, 2 mM Na3VO4, 1 mM PMSF and antiprotease cocktail.
The 100 μl of lysates are transferred to a V-bottomed polypropylene plate and ELISA is performed next or the plate is frozen at −80° C.
b) ELISA PhosphoMET BioSource Kit KH00281
In each well of the plate from the kit, add 70 μl of dilution buffer from the kit+30 μL of cell lysate or 30 μl of lysis buffer for the blank. Incubate for 2 h at room temperature, stirring gently.
Rinse the wells 4 times with 400 μl of washing buffer from the kit. Incubate with 100 μl of anti-phospho MET antibodies for 1 h at room temperature.
Rinse the wells 4 times with 400 μl of washing buffer from the kit. Incubate with 100 μl of anti-rabbit HRP antibodies for 30 minutes at room temperature (except for the wells with chromogen only).
Rinse the wells 4 times with 400 μl of washing buffer from the kit. Add 100 μL of chromogen and incubate for 30 minutes in the dark at room temperature.
Stop the reaction with 100 μl of stop solution. Read at once at […] 0.1 second in the Wallac Victor plate reader.
The products of formula (I) as defined above show cellular activity in this test between 10 nM and 10 μM.

Each structure is given as a SMILES string. Bounds are passed on as bounds.

T2 sequence (P08581 25-1390): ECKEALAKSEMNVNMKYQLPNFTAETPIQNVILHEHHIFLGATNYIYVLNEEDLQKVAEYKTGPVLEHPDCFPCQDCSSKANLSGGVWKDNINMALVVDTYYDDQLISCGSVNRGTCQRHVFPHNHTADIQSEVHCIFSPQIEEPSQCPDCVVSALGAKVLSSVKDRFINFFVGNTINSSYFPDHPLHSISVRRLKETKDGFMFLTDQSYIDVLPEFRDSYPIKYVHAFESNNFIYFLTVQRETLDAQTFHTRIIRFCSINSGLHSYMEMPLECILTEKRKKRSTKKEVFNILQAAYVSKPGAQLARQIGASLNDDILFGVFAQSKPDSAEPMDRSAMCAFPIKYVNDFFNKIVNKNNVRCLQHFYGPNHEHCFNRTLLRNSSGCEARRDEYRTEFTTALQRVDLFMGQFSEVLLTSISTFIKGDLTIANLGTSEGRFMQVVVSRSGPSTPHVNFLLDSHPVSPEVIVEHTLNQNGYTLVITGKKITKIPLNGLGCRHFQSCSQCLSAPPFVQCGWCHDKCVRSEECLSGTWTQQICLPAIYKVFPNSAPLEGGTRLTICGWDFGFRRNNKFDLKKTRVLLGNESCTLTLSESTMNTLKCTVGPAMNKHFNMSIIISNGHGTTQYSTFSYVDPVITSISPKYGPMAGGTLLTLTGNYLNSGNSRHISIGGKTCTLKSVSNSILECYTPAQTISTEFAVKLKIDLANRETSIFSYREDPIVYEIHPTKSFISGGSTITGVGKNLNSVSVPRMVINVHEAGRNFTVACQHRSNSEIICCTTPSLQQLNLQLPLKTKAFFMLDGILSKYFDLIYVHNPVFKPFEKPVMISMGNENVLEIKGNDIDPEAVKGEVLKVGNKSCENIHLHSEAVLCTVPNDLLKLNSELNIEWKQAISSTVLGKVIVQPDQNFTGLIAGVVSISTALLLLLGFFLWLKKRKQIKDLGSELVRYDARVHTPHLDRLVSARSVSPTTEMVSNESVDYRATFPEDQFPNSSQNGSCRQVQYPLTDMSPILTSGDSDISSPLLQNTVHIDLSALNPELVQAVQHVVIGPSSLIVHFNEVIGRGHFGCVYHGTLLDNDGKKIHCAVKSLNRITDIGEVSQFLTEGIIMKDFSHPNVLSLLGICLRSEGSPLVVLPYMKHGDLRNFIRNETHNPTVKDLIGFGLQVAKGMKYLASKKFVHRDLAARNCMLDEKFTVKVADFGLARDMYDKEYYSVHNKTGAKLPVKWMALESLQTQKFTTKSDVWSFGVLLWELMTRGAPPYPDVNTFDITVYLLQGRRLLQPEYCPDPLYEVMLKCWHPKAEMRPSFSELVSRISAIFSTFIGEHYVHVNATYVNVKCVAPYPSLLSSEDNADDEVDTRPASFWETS
T1 sequence (P08581 956-1390): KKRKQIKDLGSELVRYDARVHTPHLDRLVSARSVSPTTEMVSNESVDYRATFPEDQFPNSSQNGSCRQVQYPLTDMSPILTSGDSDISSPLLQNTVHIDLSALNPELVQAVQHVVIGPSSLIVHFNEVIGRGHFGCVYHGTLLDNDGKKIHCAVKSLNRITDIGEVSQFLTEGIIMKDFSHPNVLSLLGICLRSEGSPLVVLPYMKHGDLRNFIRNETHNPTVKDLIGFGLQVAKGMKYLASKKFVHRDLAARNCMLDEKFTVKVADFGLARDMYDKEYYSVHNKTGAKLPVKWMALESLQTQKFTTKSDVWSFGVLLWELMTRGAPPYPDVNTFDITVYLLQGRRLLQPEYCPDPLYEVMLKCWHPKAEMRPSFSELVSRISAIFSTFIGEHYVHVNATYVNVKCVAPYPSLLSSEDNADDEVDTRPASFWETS

In the case of `Cc1cc(COc2ccc3nc(NC(=O)NCCN4CCOCC4)sc3c2)n(C)n1` [Example 20, 1-{6-[(1,3-dimethyl-1H-pyrazol-5-yl)methoxy]-1,3-benzothiazol-2-yl}-3-(2-morpholin-4-ylethyl)urea], the melting point was 160 °C. This molecule yielded an IC50 in the series with MKN45 cells above 10000 nM. This molecule also yielded an IC50 against c-MET of 100 to 10000 nM.

`CCC(Oc1ccc2nc(NC(=O)NCCN3CCOCC3)sc2c1)c1c(Cl)cccc1Cl` (stereo not drawn) [Example 122, 1-{6-[1-(2,6-dichlorophenyl)propoxy]-1,3-benzothiazol-2-yl}-3-[2-(morpholin-4-yl)ethyl]urea]: the melting point turned out to be 200 °C. On MET, this molecule came in with an IC50 of 500 to 10000 nM. This molecule gave an IC50 in the series on MKN45 cells of 500 to 10000 nM. This molecule yielded an IC50 against c-MET below 100 nM.

Regarding `Cc1ccc(F)c(C(C)Oc2ccc3nc(N)sc3c2)c1Cl` (stereo not drawn) [Example 27, 6-[1-(2-chloro-6-fluoro-3-methylphenyl)ethoxy]-1,3-benzothiazol-2-amine], the melting point turned out to be 170 °C. Further, the IC50 with MKN45 cells was above 10000 nM. The IC50 at c-MET is 100 to 10000 nM.

In the case of `COCCN(C)C(=O)Nc1nc2cc(F)c(OC(C)c3c(Cl)ccc(F)c3Cl)cc2s1` (stereo not drawn) [Example 93, 3-{6-[1-(2,6-dichloro-3-fluorophenyl)ethoxy]-5-fluoro-1,3-benzothiazol-2-yl}-1-(2-methoxyethyl)-1-methylurea], the melting point lay within 62 to 67 °C. On MET, the IC50 fell in the range of 500 to 10000 nM. The same molecule returned an IC50 in the series on MKN45 cells of 500 to 10000 nM. For the same molecule, on c-MET, the IC50 was below 100 nM.

With `CCOCCNC(=O)Nc1nc2cc(F)c(OC(C)c3c(Cl)ccc(F)c3Cl)cc2s1` (stereo not drawn) [Example 86, 1-{6-[1-(2,6-dichloro-3-fluorophenyl)ethoxy]-5-fluoro-1,3-benzothiazol-2-yl}-3-(2-ethoxyethyl)urea], the melting point lay within 166 to 167 °C. The same molecule showed an IC50 against MET below 500 nM. Further, the IC50 in the series with MKN45 cells is 500 to 10000 nM. The molecule further showed an IC50 on c-MET below 100 nM.

For the molecule `CC(Oc1cc2sc(NC(=O)C3CC3)nc2cc1F)c1c(Cl)ccc(F)c1Cl` (stereo not drawn) [Example 67, N-{6-[1-(2,6-dichloro-3-fluorophenyl)ethoxy]-5-fluoro-1,3-benzothiazol-2-yl}cyclopropanecarboxamide], the melting point lay within 186 to 189 °C. The molecule also came in with an IC50 on MET below 500 nM. Also, the IC50 with MKN45 cells is below 500 nM. In addition, the 50% inhibitory concentration (IC50) at c-MET was below 100 nM.

The molecule `O=C(Nc1nc2cc(F)c(OCc3c(Cl)cccc3Cl)cc2s1)C1CC1` [Example 22, N-{6-[(2,6-dichlorobenzyl)oxy]-5-fluoro-1,3-benzothiazol-2-yl}cyclopropanecarboxamide] returned a melting point of 215 °C. The IC50 on MET is 500 to 10000 nM. In the series on MKN45 cells, this molecule returned an IC50 above 10000 nM. The IC50 at c-MET was below 100 nM.

The molecule `CC(Oc1cc2sc(NC(=O)NCCn3cccc3)nc2cc1F)c1c(Cl)ccc(F)c1Cl` (stereo not drawn) [Example 91, 1-{6-[1-(2,6-dichloro-3-fluorophenyl)ethoxy]-5-fluoro-1,3-benzothiazol-2-yl}-3-[2-(1H-pyrrol-1-yl)ethyl]urea] gave a melting point of 178 to 198 °C. The IC50 on MET lay in the range of 500 to 10000 nM. In the series with MKN45 cells, this molecule registered an IC50 of 500 to 10000 nM. The IC50 against c-MET is below 100 nM.

Turning to `O=C(NCCN1CCOCC1)Nc1nc2ccc(OCc3cc(Cl)nc(Cl)c3)cc2s1` [Example 16, 1-{6-[(2,6-dichloropyridin-4-yl)methoxy]-1,3-benzothiazol-2-yl}-3-(2-morpholin-4-ylethyl)urea], the melting point was found to be 193 °C. Also, the IC50 with MKN45 cells was above 10000 nM. Moreover, the half-inhibitory concentration (IC50) against c-MET was 100 to 10000 nM.

Molecule `CC(Oc1ccc2nc(N)sc2c1)c1c(Cl)ccc(F)c1Cl` (stereo not drawn) [Example 23, 6-[1-(2,6-dichloro-3-fluorophenyl)ethoxy]-1,3-benzothiazol-2-amine] came in with a melting point of 186 to 194 °C. In the series with MKN45 cells, this molecule came in with an IC50 above 10000 nM. Further, at c-MET, the IC50 fell in the range of 100 to 10000 nM.

Consider `Nc1nc2ccc(OCc3c(F)cccc3Cl)cc2s1` [Example 8, 6-[(2-chloro-6-fluorobenzyl)oxy]-1,3-benzothiazol-2-amine], for which the melting point turned out to be 175 °C. The same molecule returned a 50% inhibitory concentration (IC50) in the series on MKN45 cells above 10000 nM. The molecule also had an IC50 on c-MET of 100 to 10000 nM.
